The source of these data is paper PMC10940743, “Discovery of a Novel Cellobiose Dehydrogenase from Cellulomonas palmilytica EW123 and Its Sugar Acids Production” (Journal of Microbiology and Biotechnology, 2023).

Broadly, the Km is the concentration of substrate that gives half-maximal velocity.

The test relates to T1, CpCDH (recombinant cellobiose dehydrogenase).
T1 construct: gene cdh; signal peptide (30 residues) excluded; CYT + linker + DH domains, no CBM1; pET-28a NdeI/NotI, C-terminal His tag avoided by stop codon (N-terminal His tag implied, HisTrap); E. coli BL21(DE3); 923 residues printed; forward primer starts MVEPRH; printed 2,772 bp PCR product fits poorly with residues 31-923
The experiment in a line: spectrophotometric DCPIP reduction at […] nm, Michaelis-Menten. The format is biochemical, Cellulomonas palmilytica. As to conditions: DCPIP as electron acceptor; 50 mM sodium acetate pH 5.0; 25°C.

For `OC[C@H]1O[C@@H](O[C@H]2[C@H](O)[C@@H](O)C(O)O[C@@H]2CO)[C@H](O)[C@@H](O)[C@H]1O` (some centres unmarked) [Lactose], the Km amounted to 6.93 mM. With `OC[C@H]1O[C@@H](O[C@H]2[C@H](O)[C@@H](O)C(O)O[C@@H]2CO)[C@H](O)[C@@H](O)[C@@H]1O` (some centres unmarked) [Cellobiose], the Km turned out to be 2.24 mM.
